Laboratory results from patent US9757464B2, “Pharmaceutical compositions of dextran polymer derivatives” (Bend Research, Inc., priority 2009, dated 2017).

Assays:
[1] = Syringe dissolution test (in vitro dissolution performance); format: physicochemical; details: pH 7.4 buffer; for Concentration: 50 μg/mL dosed
Method: This solution was adjusted to pH 7.42 by adding sufficient 0.1 N HCl. […] After adding the dispersion and the buffer to the syringe, the syringe was periodically inverted to mix the components in the syringe. The syringe was fitted with a 0.45 μm Supor PES syringe filter (manufacturer, city, state). After 5 minutes, 1 mL of fluid was pushed through the filter into a 2-mL centrifuge tube. A 0.5-mL aliquot of methanol was then added to the centrifuge tube, which was then inverted to mix the contents in the tube, followed by centrifugation at 13,000 rpm for 1 minute. The supernatant was transferred to another centrifuge tube. This procedure was repeated for all timepoints. Samples were frozen in liquid nitrogen and place on a lyophilizer for 3 days to remove all liquids.

[2] = Tg of amorphous active agent by DSC; format: physicochemical

## CCC(=O)O[C@]1(C(=O)SCF)[C@H](C)C[C@H]2[C@@H]3C[C@H](F)C4=CC(=O)C=C[C@]4(C)[C@@]3(F)[C@@H](O)C[C@@]21C [Control 1]
[1]; 0 min
  Concentration: 0 µg/mL
[1]; 5 min
  Concentration: 0.25 µg/mL
[1]; 15 min
  Concentration: 0.30 µg/mL
[1]; 30 min
  Concentration: 0.10 µg/mL
[1]; 90 min
  Concentration: 0.24 µg/mL
[1]; 180 min
  Concentration: 0.37 µg/mL
[1]; syringe dissolution test
  Cmax: 0.37 µg/mL

## CCC(=O)O[C@]1(C(=O)SCF)[C@H](C)C[C@H]2[C@@H]3C[C@H](F)C4=CC(=O)C=C[C@]4(C)[C@@]3(F)[C@@H](O)C[C@@]21C [Active Agent 1, S-(fluoromethyl) 6α,9-difluoro-11β,17-dihydroxy-16α-methyl-3-oxoandrosta-1,4-diene-17β-carbothioate, 17-propionate]
[2]
  Tg of amorphous active agent: 84 °C
